Data taken from patent publication US20220088231A1, “RADIOIMMUNOCONJUGATES AND DNA DAMAGE AND REPAIR INHIBITOR COMBINATION THERAPY” (Fusion Pharmaceuticals Inc., priority 2018, published 2022).
Entries after “also recorded” stand apart in the source; their conditions may differ.

Legend:
[1] = Animal tolerability observation during BAY-1895344 dosing in the Colo-205 xenograft study; format: in vivo; conditions: Example 2: BAY-1895344 three times a week starting with 40 mg/kg, dose gradually reduced to 20 mg/kg
[2] = tested on: Colo-205 (colorectal cancer) xenograft model; test: In vivo efficacy/synergy study, relative tumor volume in Colo-205 xenograft model; conditions: for Relative tumor volume: 5 days on
Experimental: (§1) An in vivo efficacy study was conducted with olaparib alone as a single agent. […] Groups of animals (n=5) were dosed with olaparib (i.p.) 5 days on, 2 days off using 10-100 mg/kg doses.
(§2) Combination groups (n=5) were dosed with olaparib (i.p.) 5 days on, 2 days off, using a 50 mg/kg dose for 28 days.

[3] = tested on: y-H2AX foci (DSB formation); test: Immunohistochemical analysis of y-H2AX foci after olaparib treatment in xenograft models; format: in vivo; conditions: Example 3: after olaparib treatment, i.p. 10-100 mg/kg; Colo-205 and A549 xenograft models
Experimental: An in vivo efficacy study was conducted with olaparib alone as a single agent. Olaparib was given as a single agent at different doses in a Colo-205 (colorectal cancer) xenograft model and in an A549 (NSCLC) xenograft model. Groups of animals (n=5) were dosed with olaparib (i.p.) 5 days on, 2 days off using 10-100 mg/kg doses.

[4] = tested on: A549 (NSCLC) xenograft model; test: In vivo efficacy/synergy study, relative tumor volume in A549 xenograft model
Experimental: as §1, §2

C[C@@H]1COCCN1c1cc(-c2ccnn2C)c2ccnc(-c3ccn[nH]3)c2n1 [BAY-1895344]
Animal somnolence [1]: transient animal somnolence at the higher doses

O=C(c1cc(Cc2n[nH]c(=O)c3ccccc23)ccc1F)N1CCN(C(=O)C2CC2)CC1 [olaparib]
Relative tumor volume (single agent efficacy) ([2]; Example 3: olaparib i.p. 5 days on, 2 days off, 10-100 mg/kg doses (FIG. 6A)): modest efficacy as a single agent; also recorded: did not appear to be a dose response
Relative tumor volume ([2]; Example 4, dosing schedule 1 (FIG. 7): [225Ac]-FPI-1434 50 nCi, olaparib i.p. 50 mg/kg, 2 days off for 28 days, pre-dosed 3 times prior to [225Ac]-FPI-1434, up to 28 days): demonstrated some reduction in tumor volume over time
Relative tumor volume ([2]; Example 5, dosing schedule 2 (FIG. 9): [225Ac]-FPI-1434 50 nCi, olaparib i.p. 50 mg/kg, 2 days off for 28 days, first dose 24 hours after FPI-1434, up to 28 days): demonstrated significant reduction in tumor volume overtime
Relative tumor volume ([2]; Example 6 (FIG. 12): lower effective doses, [225Ac]-FPI-1434 20 nCi and olaparib 25 mg/kg i.p., 2 days off from 24 hours after until day 30): no or limited therapeutic effect
DSB formation by immunohistochemical analysis of y-H2AX foci [3]: no increase in DSB formation
Relative tumor volume (single agent efficacy) ([4]; Example 3: olaparib i.p. 5 days on, 2 days off, 10-100 mg/kg doses (FIG. 6B)): modest efficacy as a single agent; also recorded: did not appear to be a dose response
Relative tumor volume ([4]; Example 4, dosing schedule 1 (FIG. 7): [225Ac]-FPI-1434 200 nCi, olaparib i.p. 50 mg/kg, 5 days on, 2 days off for 28 days, pre-dosed 3 times prior to [225Ac]-FPI-1434, up to 28 days): no apparent difference in tumor volume over time
